Several values for one entry are separate records, joined by “and”; a condition that tells them apart may be missing. Identical values can stand only once. Inconclusive results and toxic doses are left out. Rule as the data show it: active = T/C of 150% or more; inactive = T/C below 125%.
System: L1210 leukemia ip in BDF1 mice, survival T/C
Assay: NCI In Vivo Anticancer Drug Screen. Data for tumor model L1210 Leukemia (intraperitoneal) in B6D2F1 (BDF1) mice
Conditions: endpoint: mean survival time, higher = longer survival
Method in brief: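 Survival endpoint. Drug-treated group vs vehicle group, expressed as T divided by C. Tumor passaged by transplantation.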

[1] = dose: 100.0 mg/kg/injection, schedule: Q01DX009 (ip), vehicle: Klucel (hydroxypropylcellulose) (HPC)
[2] = dose: 100.0 mg/kg/injection, schedule: Q04DX003 (ip), vehicle: Klucel (hydroxypropylcellulose) (HPC)
[3] = dose: 200.0 mg/kg/injection, schedule: Q01DX009 (ip), vehicle: Klucel (hydroxypropylcellulose) (HPC)
[4] = dose: 200.0 mg/kg/injection, schedule: Q04DX003 (ip), vehicle: Klucel (hydroxypropylcellulose) (HPC)
[5] = dose: 400.0 mg/kg/injection, schedule: Q01DX009 (ip), vehicle: Klucel (hydroxypropylcellulose) (HPC)
[6] = dose: 400.0 mg/kg/injection, schedule: Q04DX003 (ip), vehicle: Klucel (hydroxypropylcellulose) (HPC)
[7] = dose: 100.0 mg/kg/injection, schedule: Q04DX003 (ip), vehicle: saline with Tween-80
[8] = dose: 200.0 mg/kg/injection, schedule: Q04DX003 (ip), vehicle: saline with Tween-80
[9] = dose: 400.0 mg/kg/injection, schedule: Q04DX003 (ip), vehicle: saline with Tween-80
[10] = dose: 37.5 mg/kg/injection, schedule: Q04DX003 (ip), vehicle: saline
[11] = dose: 75.0 mg/kg/injection, schedule: Q04DX003 (ip), vehicle: saline
[12] = dose: 100.0 mg/kg/injection, schedule: Q01DX009 (ip), vehicle: saline
[13] = dose: 150.0 mg/kg/injection, schedule: Q04DX003 (ip), vehicle: saline
[14] = dose: 200.0 mg/kg/injection, schedule: Q01DX009 (ip), vehicle: saline
[15] = dose: 25.0 mg/kg/injection, schedule: Q01DX009 (ip), vehicle: Klucel (hydroxypropylcellulose) (HPC)
[16] = dose: 50.0 mg/kg/injection, schedule: Q01DX009 (ip), vehicle: Klucel (hydroxypropylcellulose) (HPC)
[17] = dose: 100.0 mg/kg/injection, schedule: Q04DX002 (ip), vehicle: Klucel (hydroxypropylcellulose) (HPC)
[18] = dose: 100.0 mg/kg/injection, schedule: Q04DX003 (ip), vehicle: saline
[19] = dose: 200.0 mg/kg/injection, schedule: Q04DX003 (ip), vehicle: saline
[20] = dose: 400.0 mg/kg/injection, schedule: Q04DX003 (ip), vehicle: saline

Measured: T/C

Cc1cc(OC(=O)Nc2ccccc2Cl)ccc1[N+](=O)[O-]
inactive: [1] 107 % of control | [2] 100 % of control | [3] 104 % of control | [4] 89 % of control | [5] 98 % of control | [6] 102 % of control

CC(C)Nc1nc(Cl)nc(NC(C)C)n1
inactive: dose: 150.0 mg/kg/injection, schedule: Q01DX009 (ip), vehicle: Klucel (hydroxypropylcellulose) (HPC) 101 % of control | [4] 96 % of control | dose: 225.0 mg/kg/injection, schedule: Q01DX009 (ip), vehicle: Klucel (hydroxypropylcellulose) (HPC) 94 % of control | dose: 335.0 mg/kg/injection, schedule: Q01DX009 (ip), vehicle: Klucel (hydroxypropylcellulose) (HPC) 94 % of control | [6] 94 % of control

COc1nc(N)c([N+](=O)[O-])c(OC)n1
inactive: dose: 16.0 mg/kg/injection, schedule: Q01DX Z (ip), vehicle: methylcellulose (MC) 97 % of control | dose: 31.0 mg/kg/injection, schedule: Q01DX Z (ip), vehicle: methylcellulose (MC) 90 % of control | dose: 62.0 mg/kg/injection, schedule: Q01DX Z (ip), vehicle: methylcellulose (MC) 103 % of control

COc1cc(/C=N/NC(N)=S)cc(OC)c1OC
inactive: dose: 100.0 mg/kg/injection, schedule: Q01DX009 (ip), vehicle: saline with Tween-80 93 % of control | [7] 108 % of control | dose: 200.0 mg/kg/injection, schedule: Q01DX009 (ip), vehicle: saline with Tween-80 98 % of control | [8] 110 % of control | dose: 400.0 mg/kg/injection, schedule: Q01DX009 (ip), vehicle: saline with Tween-80 104 % of control | [9] 106 % of control

COc1cc2c(c(OC)c1OC)CCNC2
inactive: dose: 5.0 mg/kg/injection, schedule: Q01DX001 (ip), vehicle: saline 100 % of control | dose: 10.0 mg/kg/injection, schedule: Q01DX001 (ip), vehicle: saline 100 % of control | dose: 20.0 mg/kg/injection, schedule: Q01DX001 (ip), vehicle: saline 100 % of control | dose: 40.0 mg/kg/injection, schedule: Q01DX001 (ip), vehicle: saline 101 % of control

NC(=O)c1ccc[n+](Cc2ccccc2)c1
inactive: [10] 97 % of control | [11] 94 % of control | [12] 100 % of control | [13] 95 % of control | [14] 107 % of control

COc1cc2c(cc1OC)C1CCN3CCCC3N1CC2 (configuration not stated)
inactive: [15] 102 % of control | [16] 96 % of control | [1] 98 % of control | [2] 96 % of control

Cc1c([N+](=O)[O-])cc(CCn2cnc3c(=O)[nH]cnc32)cc1[N+](=O)[O-]
inactive: dose: 50.0 mg/kg/injection, schedule: Q01DX001 (ip), vehicle: carboxymethylcellulose (CMC) 98 % of control | dose: 100.0 mg/kg/injection, schedule: Q01DX001 (ip), vehicle: carboxymethylcellulose (CMC) 98 % of control | dose: 200.0 mg/kg/injection, schedule: Q01DX001 (ip), vehicle: carboxymethylcellulose (CMC) 95 % of control | dose: 400.0 mg/kg/injection, schedule: Q01DX001 (ip), vehicle: carboxymethylcellulose (CMC) 104 % of control

COc1cc(C=C(C#N)C#N)cc(OC)c1OC
inactive: dose: 25.0 mg/kg/injection, schedule: Q04DX002 (ip), vehicle: gum acacia 100 % of control | dose: 50.0 mg/kg/injection, schedule: Q04DX002 (ip), vehicle: gum acacia 110 % of control | dose: 100.0 mg/kg/injection, schedule: Q04DX002 (ip), vehicle: gum acacia 122 % of control and 91 % of control

N#CC(O)C1(O)CCCCC1 (configuration not stated)
inactive: dose: 6.25 mg/kg/injection, schedule: Q04DX003 (ip), vehicle: saline sonified 101 % of control | dose: 12.5 mg/kg/injection, schedule: Q04DX003 (ip), vehicle: saline sonified 101 % of control | dose: 25.0 mg/kg/injection, schedule: Q04DX003 (ip), vehicle: saline sonified 94 % of control

COC1CCCNC1CC(=O)Cn1cnc2cc3c(cc2c1=O)OCO3 (configuration not stated)
inactive: dose: 18.75 mg/kg/injection, schedule: Q01DX009 (ip), vehicle: saline 92 % of control | dose: 37.5 mg/kg/injection, schedule: Q01DX009 (ip), vehicle: saline 111 % of control | [10] 98 % of control | dose: 75.0 mg/kg/injection, schedule: Q01DX001 (ip), vehicle: saline 101 % of control | dose: 75.0 mg/kg/injection, schedule: Q01DX009 (ip), vehicle: saline 93 % of control | [11] 104 % of control | dose: 150.0 mg/kg/injection, schedule: Q01DX001 (ip), vehicle: saline 107 % of control | [13] 100 % of control

Nc1nc(Br)c(Br)nc1C(=O)O
inactive: dose: 12.5 mg/kg/injection, schedule: Q01DX009 (ip), vehicle: Klucel (hydroxypropylcellulose) (HPC) 101 % of control and 103 % of control | [15] 97 % of control | dose: 50.0 mg/kg/injection, schedule: Q01DX001 (ip), vehicle: Klucel (hydroxypropylcellulose) (HPC) 101 % of control | [16] 95 % of control and 91 % of control | dose: 50.0 mg/kg/injection, schedule: Q04DX002 (ip), vehicle: Klucel (hydroxypropylcellulose) (HPC) 104 % of control | dose: 50.0 mg/kg/injection, schedule: Q04DX003 (ip), vehicle: Klucel (hydroxypropylcellulose) (HPC) 103 % of control | dose: 100.0 mg/kg/injection, schedule: Q01DX001 (ip), vehicle: Klucel (hydroxypropylcellulose) (HPC) 102 % of control | [17] 100 % of control | [2] 106 % of control | dose: 200.0 mg/kg/injection, schedule: Q01DX001 (ip), vehicle: Klucel (hydroxypropylcellulose) (HPC) 96 % of control

CCOC(=O)C(C)NCc1ccccc1 (configuration not stated)
inactive: [1] 94 % of control | [2] 98 % of control | [3] 111 % of control | [4] 93 % of control | [5] 103 % of control | [6] 96 % of control

O=C1/C(=C(/c2ccccc2)N2CCOCC2)Cc2ccccc21
inactive: dose: 25.0 mg/kg/injection, schedule: Q04DX003 (ip), vehicle: saline with Tween-80 90 % of control | [7] 95 % of control

CN(C)Cc1ccc(C(C)(C)C)cc1
inactive: dose: 25.0 mg/kg/injection, schedule: Q01DX009 (ip), vehicle: water 97 % of control | dose: 50.0 mg/kg/injection, schedule: Q01DX009 (ip), vehicle: water 105 % of control | dose: 100.0 mg/kg/injection, schedule: Q01DX009 (ip), vehicle: water 95 % of control

CCC(=O)Nc1cccc(OC(=O)N(C(C)C)C(C)C)c1
inactive: [7] 93 % of control | [8] 93 % of control | [9] 104 % of control

COc1ccc(N)cc1OC
inactive: [18] 110 % of control | [19] 105 % of control | [20] 100 % of control

O=C(Nc1cc(NC(=O)Nc2cccc(C3=NCCN3)c2)cc(C(=O)O)c1)Nc1cccc(C2=NCCN2)c1
inactive: dose: 15.0 mg/kg/injection, schedule: Q01DX Z (ip), vehicle: carboxymethylcellulose (CMC) 96 % of control | dose: 30.0 mg/kg/injection, schedule: Q01DX Z (ip), vehicle: carboxymethylcellulose (CMC) 96 % of control | dose: 60.0 mg/kg/injection, schedule: Q01DX Z (ip), vehicle: carboxymethylcellulose (CMC) 94 % of control | dose: 120.0 mg/kg/injection, schedule: Q01DX Z (ip), vehicle: carboxymethylcellulose (CMC) 100 % of control and 106 % of control | dose: 240.0 mg/kg/injection, schedule: Q01DX Z (ip), vehicle: carboxymethylcellulose (CMC) 104 % of control

COc1ccc(C(=O)/C=C2\C(=O)Nc3ccc(Br)cc32)cc1
inactive: [17] 107 % of control | dose: 200.0 mg/kg/injection, schedule: Q04DX002 (ip), vehicle: Klucel (hydroxypropylcellulose) (HPC) 100 % of control | dose: 400.0 mg/kg/injection, schedule: Q04DX002 (ip), vehicle: Klucel (hydroxypropylcellulose) (HPC) 93 % of control

CC(=O)N(C)c1ccc(N)cc1
inactive: [12] 104 % of control | [18] 100 % of control | [14] 98 % of control | [19] 105 % of control | dose: 400.0 mg/kg/injection, schedule: Q01DX009 (ip), vehicle: saline 93 % of control | [20] 102 % of control

— PubChem BioAssay AID248 (DTP/NCI, 2004)
